Data as given in ChEMBL document CHEMBL1144085, “DNA polymerase beta inhibitors from Sandoricum koetjape” (J Nat Prod, 1999).
Calls of active or inactive are those of the source. No cut-off for these calls is given here.

Assays:
[1] = target: DNA polymerase beta (Rattus norvegicus) (UniProt P06766); assay: (§1) Inhibition of rat DNA polymerase beta
DNA polymerase beta = DNA polymerase beta (Rattus norvegicus, UniProt P06766); assay: as §1
[2] = target: DNA polymerase beta (Rattus norvegicus) (UniProt P06766); assay: Activity of rat DNA polymerase beta using variable levels of DNA template primer by Lineweaver-Burke plot
[3] = target: DNA polymerase beta (Rattus norvegicus) (UniProt P06766); assay: Activity of rat DNA polymerase beta using variable levels of [3H]TTP substrate by Lineweaver-Burke plot

| SMILES | Activity [1] | IC50 (DNA polymerase beta) [µM] | Kii [2] [µM] | Kis [2] [µM] | Kii [3] [µM] | Kis [3] [µM] |
| --- | --- | --- | --- | --- | --- | --- |
| COC(=O)[C@]1(C)CC[C@]2(C)CC[C@]3(C)C(=CC[C@@H]4[C@@]5(C)CC[C@@H](O)C(C)(C)[C@@H]5CC[C@]43C)[C@@H]2C1 | inactive |  |  |  |  |  |
| CC1(C)/C(=N\OCc2ccccc2)CC[C@]2(C)[C@H]3CC=C4[C@@H]5C[C@](C)(C(=O)O)CC[C@]5(C)CC[C@@]4(C)[C@]3(C)CC[C@@H]12 |  | 35 | 24 | 37 | 22 | 69 |
| CCOC(=O)[C@]1(C)CC[C@]2(C)CC[C@]3(C)C(=CC[C@@H]4[C@@]5(C)CCC(=O)C(C)(C)[C@@H]5CC[C@]43C)[C@@H]2C1 | inactive |  |  |  |  |  |
| CCCCNC(=O)[C@]1(C)CC[C@]2(C)CC[C@]3(C)C(=CC[C@@H]4[C@@]5(C)CCC(=O)C(C)(C)[C@@H]5CC[C@]43C)[C@@H]2C1 | inactive |  |  |  |  |  |
| COC(=O)[C@]1(C)CC[C@]2(C)CC[C@]3(C)C(=CC[C@@H]4[C@@]5(C)CCC(=O)C(C)(C)[C@@H]5CC[C@]43C)[C@@H]2C1 | inactive |  |  |  |  |  |
| CC1(C)[C@H](O)CC[C@]2(C)[C@H]3CC=C4[C@@H]5C[C@](C)(C(=O)O)CC[C@]5(C)CC[C@@]4(C)[C@]3(C)CC[C@@H]12 [KATONIC ACID] |  | 36 | 11 | 4.2 | 24 | 60 |
| CC1(C)C(=O)CC[C@]2(C)[C@H]3CC=C4[C@@H]5C[C@](C)(C(N)=O)CC[C@]5(C)CC[C@@]4(C)[C@]3(C)CC[C@@H]12 | inactive |  |  |  |  |  |
| C=C(C)[C@@H]1CC[C@]2(C)[C@H](CC=C3[C@@H]4C[C@@](C)(C(=O)O)CC[C@]4(C)CC[C@]32C)[C@@]1(C)CCC(=O)O [KOETJAPIC ACID] |  | 20 | 18 | 5.6 | 11 | 24 |
| CCN(CC)C(=O)[C@]1(C)CC[C@]2(C)CC[C@]3(C)C(=CC[C@@H]4[C@@]5(C)CCC(=O)C(C)(C)[C@@H]5CC[C@]43C)[C@@H]2C1 | inactive |  |  |  |  |  |
| CO/N=C1/CC[C@]2(C)[C@H]3CC=C4[C@@H]5C[C@](C)(C(=O)O)CC[C@]5(C)CC[C@@]4(C)[C@]3(C)CC[C@H]2C1(C)C |  | 36 | 35 | 9.1 | 35 | 73 |
| CC1(C)C(=O)CC[C@]2(C)[C@H]3CC=C4[C@@H]5C[C@](C)(C(=O)O)CC[C@]5(C)CC[C@@]4(C)[C@]3(C)CC[C@@H]12 |  | 22 | 50 | 5.5 | 9.1 | 60 |
| CC(C)(C)NC(=O)[C@]1(C)CC[C@]2(C)CC[C@]3(C)C(=CC[C@@H]4[C@@]5(C)CCC(=O)C(C)(C)[C@@H]5CC[C@]43C)[C@@H]2C1 | inactive |  |  |  |  |  |
| CC1(C)/C(=N\O)CC[C@]2(C)[C@H]3CC=C4[C@@H]5C[C@](C)(C(=O)O)CC[C@]5(C)CC[C@@]4(C)[C@]3(C)CC[C@@H]12 |  | 16 |  |  | 10 | 16 |
